Assay results from patent publication US6180599A, “Pharmaceutical composition, containing medium-chain fatty acids as active ingredients, for dental caries and periodontal disease” (priority 1997, dated 2001).

Tests used:
S. mutans JC-2 = assay: Inhibitory effect on extracellular polysaccharide synthesis, standard strain; type: cell-based, Streptococcus mutans; settings: 1 mM
Procedure: (§1) In order to identify the effect by which medium-chain fatty acids inhibit plaque matrix formation, inhibitory effect and concentration of extracellular polysaccharide synthesis were determined in seven kinds of standard cariogenic plaque bacteria. Also, the inhibitory effect of extracellular polysaccharide synthesis for 20 kinds of cariogenic plaque bacteria, separated from the human oral cavity, was measured. Liquid culture media used were: Todd-Hewitt broth of Streptococcus, Lactobacilli MRS broth of Lactobacillus and Brain Heart Infusion broth of Actinomyces. 0.1 ml of bacterial (or cell) suspension (OD600 =0.5) of each bacteria was inoculated to 5.9 ml of culture media containing 1 mM of medium-chain fatty acids and 2% of glucose, and was cultured for 24^~ 48 hours in 10% CO2 incubator. After culturing, the resultant was centrifuged to precipitate at 5,000×g for 15 minutes, then soluble extracellular polysaccharide was separated and purified from the supernatant and insoluble extracellular polysaccharide from the cell pellet, and then these were quantified.

S. mutans BHT = assay: as above; type: cell-based, Streptococcus mutans; settings: 1 mM
Procedure: as §1

S. mutans 10449 = assay: as above; type: cell-based, Streptococcus mutans; settings: 1 mM
Procedure: as §1

[1] = test system: cariogenic plaque bacteria (standard strains); assay: Inhibitory effect of acid production, standard strains; type: cell-based, Streptococcus, Lactobacillus and Actinomyces; settings: for inhibitory effect of acid production (in words): 0.5-8 mM, pH 5.0 and 7.0, 24-48 hours
Procedure: In order to identify the action by which medium-chain fatty acids inhibit acid production, the inhibitory effect and concentration of acid production were determined in seven kinds of standard cariogenic plaque bacteria. Also, the inhibitory effect of acid production for 20 kinds of cariogenic plaque bacteria, separated from the human oral cavity, was assayed. Liquid culture media used were: Todd-Hewitt broth of Streptococcus, Lactobacilli MRS broth of Lactobacillus and Brain Heart Infusion broth of Actinomyces. […] The final pH of the culture medium was measured after culturing for 24^~ 48 hours in 10% CO2 incubator.

[2] = test system: cariogenic plaque bacteria (standard strains); assay: Inhibitory effect of bacterial growth, standard strains; type: cell-based, Streptococcus, Lactobacillus and Actinomyces
Procedure: (§2) In order to evaluate how medium-chain fatty acids influence bacterial growth of cariogenic plaque bacteria, the influence on each bacteria was evaluated after selecting seven kinds of bacterial strains as standard bacteria among cariogenic plaque bacteria. […] The results that medium-chain fatty acids have on influencing bacterial growth of cariogenic plaque bacteria is shown in FIG. 3. And the result of measuring inhibitory effect of bacterial growth of 20 kinds of cariogenic plaque bacteria separated from the human oral cavities is shown in FIG. 4.

[3] = test system: cariogenic plaque bacteria separated from human oral cavities; assay: Extracellular polysaccharide synthesis, 20 kinds of bacteria separated from human oral cavities (summary); type: cell-based; settings: 1 mM
Procedure: as §1, with “quantified. So the experimental results that represent inhibitory effect of medium-chain fatty acids upon extracellular polysaccharide synthesis, are shown in table 1, 2, 3 and 4.” for “quantified.”

Streptococcus sobrinus = assay: Extracellular polysaccharide synthesis in plaque bacteria separated from human oral cavities; type: cell-based; settings: isolate XX, 1 mM
Procedure: as §1, with “quantified. So the experimental results that represent inhibitory effect of medium-chain fatty acids upon extracellular polysaccharide synthesis, are shown in table 1, 2, 3 and 4.” for “quantified.”

Lactobacillus casei = assay: as above; type: cell-based; settings: 1 mM
Procedure: as §1, with “quantified. So the experimental results that represent inhibitory effect of medium-chain fatty acids upon extracellular polysaccharide synthesis, are shown in table 1, 2, 3 and 4.” for “quantified.”

Streptococcus mutans = assay: as above; type: cell-based; settings: 1 mM
Procedure: as §1, with “quantified. So the experimental results that represent inhibitory effect of medium-chain fatty acids upon extracellular polysaccharide synthesis, are shown in table 1, 2, 3 and 4.” for “quantified.”

[4] = test system: cariogenic plaque bacteria separated from human oral cavities; assay: Inhibitory effect of bacterial growth, bacteria separated from human oral cavities; type: cell-based; settings: 1 mM lauric acid as salt form; neutral and acidic pH; FIG. 4
Procedure: as §2

L. casei ATCC 4646 = assay: Inhibitory effect on extracellular polysaccharide synthesis, standard strain; type: cell-based, Lactobacillus casei; settings: 1 mM
Procedure: as §1

L. casei ATCC 27216 = assay: as above; type: cell-based, Lactobacillus casei; settings: 1 mM
Procedure: as §1

SMILES: CCCCCCCCCCCC(=O)[O-].[Na+] [C12, sodium laurate]
- Extracellular polysaccharide, insoluble (S. mutans JC-2; 2% glucose, 24-48 hours, control 1.1 ± 0.2): 0.1 ± 0.1 µg/mL
- Extracellular polysaccharide, soluble (S. mutans JC-2; 2% glucose, 24-48 hours, control 34.4 ± 3.9): 0.6 ± 0.5 µg/mL
- Inhibitory rate, soluble (S. mutans JC-2; vs control): 98%
- Extracellular polysaccharide, soluble (S. mutans BHT; 2% glucose, 24-48 hours, control 31.5 ± 3.7): 4.1 ± 0.8 µg/mL
- Inhibitory rate, soluble (S. mutans BHT; vs control): 87%
- Extracellular polysaccharide, insoluble (S. mutans 10449; 2% glucose, 24-48 hours, control 0.8 ± 0.3): 0.2 ± 0.1 µg/mL
- Extracellular polysaccharide, soluble (S. mutans 10449; 2% glucose, 24-48 hours, control 74.6 ± 1.8): 15.5 ± 3.8 µg/mL
- Inhibitory rate, soluble (S. mutans 10449; vs control): 79%
- inhibitory effect of acid production (in words) [1]: excellent inhibitory effect of acid production even at low concentration of 1 mM
- inhibitory effect of acid production (in words) ([1]; listed as salt form of lauric acid): almost completely inhibits the acid production ability
- inhibitory effect of acid production in acidic conditions (in words) ([1]; acidic conditions, FIG. 1): significant effect of acid production in acidic conditions
- inhibitory effect of acid production, sequence ([1]; ranking, FIG. 1): sodium laurate>sodium capriate>sodium nonanoate
- inhibitory effect of bacterial growth (in words) ([2]; 0.5-8 mM, pH 5.0 and 7.0, OD 600 nm, 24-48 hours): almost completely inhibits
- inhibitory effect of bacterial growth, sequence ([2]; ranking, FIG. 3): sodium laurate>sodium capriate>sodium nonanoate
- inhibition of soluble extracellular polysaccharide synthesis (in words) [3]: noticeably inhibits soluble extracellular polysaccharide synthesis
- Inhibitory rate (Streptococcus sobrinus): 79%
- Soluble extracellular polysaccharide (Streptococcus sobrinus; control 116.0 ± 17.2): 24.0 ± 1.5 µg/mL
- Inhibitory rate (Lactobacillus casei; isolate I): 76%
- Soluble extracellular polysaccharide (Lactobacillus casei; isolate I, control 105.1 ± 7.2): 25.1 ± 1.7 µg/mL
- Inhibitory rate (Lactobacillus casei; isolate II): 71%
- Soluble extracellular polysaccharide (Lactobacillus casei; isolate II, control 121.4 ± 27.1): 35.0 ± 2.9 µg/mL
- Inhibitory rate (Lactobacillus casei; isolate III): 75%
- Soluble extracellular polysaccharide (Lactobacillus casei; isolate III, control 140.4 ± 4.9): 34.7 ± 0.9 µg/mL
- Inhibitory rate (Lactobacillus casei; isolate IV): 74%
- Soluble extracellular polysaccharide (Lactobacillus casei; isolate IV, control 151.4 ± 7.6): 38.8 ± 4.1 µg/mL
- Inhibitory rate (Lactobacillus casei; isolate IX): 79%
- Soluble extracellular polysaccharide (Lactobacillus casei; isolate IX, control 214.6 ± 18.8): 46.1 ± 3.0 µg/mL
- Inhibitory rate (Lactobacillus casei; isolate V): 73%
- Soluble extracellular polysaccharide (Lactobacillus casei; isolate V, control 137.4 ± 21.8): 36.6 ± 4.3 µg/mL
- Inhibitory rate (Lactobacillus casei; isolate VI): 74%
- Soluble extracellular polysaccharide (Lactobacillus casei; isolate VI, control 184.6 ± 6.5): 48.5 ± 2.7 µg/mL
- Inhibitory rate (Lactobacillus casei; isolate VII): 70%
- Soluble extracellular polysaccharide (Lactobacillus casei; isolate VII, control 149.9 ± 16.8): 44.7 ± 3.1 µg/mL
- Inhibitory rate (Lactobacillus casei; isolate VIII): 72%
- Soluble extracellular polysaccharide (Lactobacillus casei; isolate VIII, control 221.6 ± 20.1): 62.6 ± 3.4 µg/mL
- Inhibitory rate (Lactobacillus casei; isolate X): 72%
- Soluble extracellular polysaccharide (Lactobacillus casei; isolate X, control 201.7 ± 36.1): 56.3 ± 8.2 µg/mL
- Inhibitory rate (Streptococcus mutans; isolate XI): 70%
- Soluble extracellular polysaccharide (Streptococcus mutans; isolate XI, control 95.2 ± 8.3): 28.6 ± 3.5 µg/mL
- Inhibitory rate (Streptococcus mutans; isolate XII): 58%
- Soluble extracellular polysaccharide (Streptococcus mutans; isolate XII, control 84.2 ± 8.6): 35.2 ± 5.0 µg/mL
- Inhibitory rate (Streptococcus mutans; isolate XIII): 69%
- Soluble extracellular polysaccharide (Streptococcus mutans; isolate XIII, control 90.5 ± 8.3): 27.7 ± 3.3 µg/mL
- Inhibitory rate (Streptococcus mutans; isolate XIV): 53%
- Soluble extracellular polysaccharide (Streptococcus mutans; isolate XIV, control 90.5 ± 2.9): 42.6 ± 1.0 µg/mL
- Inhibitory rate (Streptococcus mutans; isolate XIX): 70%
- Soluble extracellular polysaccharide (Streptococcus mutans; isolate XIX, control 113.7 ± 6.8): 34.3 ± 3.3 µg/mL
- Inhibitory rate (Streptococcus mutans; isolate XV): 62%
- Soluble extracellular polysaccharide (Streptococcus mutans; isolate XV, control 117.9 ± 4.6): 44.5 ± 1.7 µg/mL
- Inhibitory rate (Streptococcus mutans; isolate XVI): 66%
- Soluble extracellular polysaccharide (Streptococcus mutans; isolate XVI, control 143.2 ± 11.1): 48.2 ± 4.5 µg/mL
- Inhibitory rate (Streptococcus mutans; isolate XVII): 67%
- Soluble extracellular polysaccharide (Streptococcus mutans; isolate XVII, control 107.8 ± 17.0): 35.4 ± 2.1 µg/mL
- Inhibitory rate (Streptococcus mutans; isolate XVIII): 59%
- Soluble extracellular polysaccharide (Streptococcus mutans; isolate XVIII, control 98.5 ± 9.0): 40.5 ± 1.7 µg/mL
- inhibition of bacterial growth (in words) [4]: more remarkable effects even at low concentration than that of the control group
- Extracellular polysaccharide, insoluble (L. casei ATCC 4646; 2% glucose, 24-48 hours, control 5.3 ± 0.5): 0.2 ± 0.2 µg/mL
- Extracellular polysaccharide, soluble (L. casei ATCC 4646; 2% glucose, 24-48 hours, control 43.6 ± 7.0): 19.2 ± 2.9 µg/mL
- Inhibitory rate, soluble (L. casei ATCC 4646; vs control): 56%
- Extracellular polysaccharide, insoluble (L. casei ATCC 27216; 2% glucose, 24-48 hours, control 5.9 ± 0.4): 2.0 ± 0.1 µg/mL
- Extracellular polysaccharide, soluble (L. casei ATCC 27216; 2% glucose, 24-48 hours, control 67.3 ± 4.5): 19.0 ± 2.1 µg/mL
- Inhibitory rate, soluble (L. casei ATCC 27216; vs control): 72%
